Patent US11498928B2, “Macrocyclic spiroethers as Mcl-1 inhibitors” (ASCENTAGE PHARMA (SUZHOU) CO., LTD., priority 2019, dated 2022)

Columns and labels:
[1] = target: T1, Mcl-1 protein (residues 171-323) (Homo sapiens, UniProt Q07820); assay: Inhibition of Mcl-1 by fluorescence polarization (FP) competitive binding assay with FAM-Bid tracer; settings: 2 nM FAM-Bid, 20 nM Mcl-1, 30 min
T1 construct: Tag-free Mcl-1 protein (residues 171-323) was used in the FP assay
Summary of the method: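 Ten-point compound titrations compete against 2 nM fluorescein-Bid for 20 nM Mcl-1 (171-323, untagged). Incubation 30 min RT in PBS buffer with BGG and Triton, 5% DMSO final. mP reduction fitted by sigmoidal nonlinear regression for IC50.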

[2] = tested on: NCI-H929 cells; assay: Cell viability assay (NCI-H929 cells), CCK-8; format: cell-based; settings: 5% FBS
Summary of the method: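 Viability of NCI-H929 cells was measured using the Cell Counting Kit-8. After 24 hrs of compound exposure, 10 μL of CCK-8 solution per well was incubated for 1-4 hours, and absorbance was read at 450 nm on a BioTek Synergy 1MF. Readings were normalized to vehicle (DMSO) cells, and IC50 values were derived by nonlinear regression in GraphPad Prism 6.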

[3] = tested on: OPM-2 cells; assay: Cell viability assay (OPM-2 cells), CCK-8; format: cell-based; settings: 5% FBS
Summary of the method: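 Viability read by CCK-8 absorbance (450 nm, 4 h reagent incubation) after 24 h compound exposure of 20000 OPM-2 cells per well at 37 °C. IC50 fitted by nonlinear regression on vehicle-normalized signal.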

T1 sequence (Q07820 171-323): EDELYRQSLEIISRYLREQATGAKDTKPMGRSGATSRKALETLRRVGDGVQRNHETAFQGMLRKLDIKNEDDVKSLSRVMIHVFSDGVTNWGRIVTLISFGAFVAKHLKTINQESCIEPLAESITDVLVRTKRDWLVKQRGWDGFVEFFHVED

SMILES	IC50 [1]	IC50 ([2]; Homo sapiens, NCI-H929, 24 h)	IC50 ([3]; Homo sapiens, OPM-2, 24 h)	IC50 ([2]; 24 h)	IC50 ([3]; 24 h)
CO[C@H]1C2=C[C@H](C2)[C@H](C)N(C[C@@H]2CCCO2)S(=O)(=O)NC(=O)c2ccc3c(c2)N(C[C@@H]2CC[C@H]21)C[C@@]1(CCCc2cc(Cl)ccc21)CO3 (single isomer, unassigned) [30 (isomer 1)]	6.2 nM	2900 nM	2310 nM		
CO[C@H]1C2=C[C@@H](C2)[C@H](C)[C@@H](C)S(=O)(=O)NC(=O)c2ccc3c(c2)N(C[C@@H]2CC[C@H]21)C[C@@]1(CCCc2c1cc(F)c(Cl)c2F)CO3 [compound 25]	420 nM	3400 nM	2500 nM		
C[C@@H]1[C@@H](C)S(=O)(=O)NC(=O)c2ccc3c(c2)N(C[C@@H]2CC[C@H]2[C@@H](OCCN2CCN(C)CC2)C2=C[C@H]1C2)C[C@@]1(CCCc2c1ccc(Cl)c2F)CO3 [compound 86, (1S,11′R,12′S,13′R,16′R,16a′R,18a′R,E)-6-chloro-5-fluoro-11′,12′-dimethyl-16′-(2-(4-methylpiperazin-1-yl)ethoxy)-3,4,12′,13′,16′,16a′,17′,18′,18a′,19′-decahydro-1′H,2H,3′H, 11′H-spiro[naphthalene-1,2′-[5,7]etheno[13,15]methanocyclobuta[i][1,4]oxazepino[3,4-f][1]thia[2,7]diazacyclohexadecin]-8′(9′H)-one 10′,10′-dioxide]	10 nM	3.8 nM	64 nM		
CO[C@@]1(CN2CCN(S(C)(=O)=O)CC2)C2=C[C@@H](C2)[C@H](C)[C@@H](C)S(=O)(=O)NC(=O)c2ccc3c(c2)N(C[C@@H]2CC[C@H]21)C[C@@]1(CCCc2c1ccc(Cl)c2F)CO3 [compound 38, (1S,11′R,12′S,13′R,16′R,16a′R,18a′R,E)-6-chloro-5-fluoro-16′-methoxy-1′,12′-dimethyl-16′-((4-(methylsulfonyl)piperazin-1-yl)methyl)-3,4,12′,13′,16′,16a′,17′,18′,18a′,19′-decahydro-1′H,2H,3′H,11′H-spiro[naphthalene-1,2′-[5,7]etheno[13,15]methanocyclobuta[i][1,4]oxazepino[3,4-f][1]thia[2,7]diazacyclohexadecin]-8′(9′H)-one 10′,10′-dioxide]	15 nM	50 nM	30 nM		
CO[C@@]1(CN2CCN3CCOC[C@@H]3C2)C2=C[C@@H](C2)[C@H](C)[C@@H](C)S(=O)(=O)NC(=O)c2ccc3c(c2)N(C[C@@H]2CC[C@H]21)C[C@@]1(CCCc2c1ccc(Cl)c2F)CO3 [compound 51, (1S,11′R,12′S,13′R,16′R,16a′R,18a′R,E)-6-chloro-5-fluoro-16′-(((S)-hexahydropyrazino[2,1-c][1,4]oxazin-8(1H)-yl)methyl)-16′-methoxy-11′,12′-dimethyl-3,4,12′,13′,16′,16a′,17′,18′,18a′,19′-decahydro-1′H,2H,3′H,11′H-spiro[naphthalene-1,2′-[5,7]etheno[13,15]methanocyclobuta[i][1,4]oxazepino[3,4-f][1]thia[2,7]diazacyclohexadecin]-8′(9′H)-one 10′,10′-dioxide]	7.4 nM	6 nM	14 nM		
CO[C@@]1(CN(C)C(C)=O)C2=C[C@@H](C2)[C@H](C)[C@@H](C)S(=O)(=O)NC(=O)c2ccc3c(c2)N(C[C@@H]2CC[C@H]21)C[C@@]1(CCCc2c1ccc(Cl)c2F)CO3 [compound 53, N-(((1S,11′R,12′S,13′R,16′R,16a′R,18a′R,E)-6-chloro-5-fluoro-16′-methoxy-11′,12′-dimethyl-10′,10′-dioxido-8′-oxo-3,4,8′,9′,12′,13′,16′,16a′,17′,18′,18a′,19′-dodecahydro-1′H,2H,3′H,11′H-spiro[naphthalene-1,2′-[5,7]etheno[13,15]methanocyclobuta[i][1,4]oxazepino[3,4-f][1]thia[2,7]diazacyclohexadecin]-16′-yl)methyl)-N-methylacetamide]	5.7 nM	49 nM	57 nM		
C[C@@H]1[C@@H](C)S(=O)(=O)NC(=O)c2ccc3c(c2)N(C[C@@H]2CC[C@H]2[C@@H](OCCN2CCCS2(=O)=O)C2=C[C@H]1C2)C[C@@]1(CCCc2c1ccc(Cl)c2F)CO3 [compound 92, (1S,11′R,12′S,13′R,16′R,16a′R,18a′R)-6-chloro-16′-(2-(1,1-dioxidoisothiazolidin-2-yl)ethoxy)-5-fluoro-11′,12′-dimethyl-3,4,12′,13′,16′,16a′,17′,18′,18a′,19′-decahydro-1′H,2H,3′H,11′H-spiro[naphthalene-1,2′-[5,7]etheno[13,15]methanocyclobuta[i][1,4]oxazepino[3,4-f][1]thia[2,7]diazacyclohexadecin]-8′(9′H)-one 10′,10′-dioxide]	14 nM	59 nM	44 nM		
CO[C@@]1(CN2CCN(C)CC2)C2=C[C@@H](C2)[C@H](C)[C@@H](C)S(=O)(=O)NC(=O)c2ccc3c(c2)N(C[C@@H]2CC[C@H]21)C[C@@]1(CCCc2c1ccc(Cl)c2F)CO3 [compound 35, (1S,11′R,12′S,13′R,16′R,16a′R,18a′R,E)-6-chloro-5-fluoro-16′-methoxy-11′,12′-dimethyl-16′-((4-methylpiperazin-1-yl)methyl)-3,4,12′,13′,16′,16a′,17′,18′,18a′,19′-decahydro-1′H,2H,3′H, 11′H-spiro[naphthalene-1,2′-[5,7]etheno[13,15]methanocyclobuta[i][1,4]oxazepino[3,4-f][1]thia[2,7]diazacyclohexadecin]-8′(9′H)-one 10′,10′-dioxide]	14 nM	2.4 nM	32 nM		
CO[C@@]1(CN2CCNC(=O)C2)C2=C[C@@H](C2)[C@H](C)[C@@H](C)S(=O)(=O)NC(=O)c2ccc3c(c2)N(C[C@@H]2CC[C@H]21)C[C@@]1(CCCc2c1ccc(Cl)c2F)CO3 [compound 42, (1S,11′R,12′S,13′R,16′R,16a′R,18a′R,E)-6-chloro-5-fluoro-16′-methoxy-11′,12′-dimethyl-16′-((3-oxopiperazin-1-yl)methyl)-3,4,12′,13′,16′,16a′,17′,18′,18a′,19′-decahydro-1′H,2H,3′H, 11′H-spiro[naphthalene-1,2′-[5,7]etheno[13,15]methanocyclobuta[i][1,4]oxazepino[3,4-f][1]thia[2,7]diazacyclohexadecin]-8′(9′H)-one 10′,10′-dioxide]	13 nM	51 nM	66 nM		
CC[C@@H]1CS(=O)(=O)NC(=O)c2ccc3c(c2)N(C[C@@H]2CC[C@H]2[C@@H](OC)C2=CC1C2)C[C@@]1(CCCc2cc(Cl)ccc21)CO3 (single isomer, unassigned) [Cpd. No. 9 (Isomer 1)]	4.4 nM			680 nM	1170 nM
CO[C@@H]1C2=CC(C2)[C@H](C)N(C)S(=O)(=O)NC(=O)c2ccc3c(c2)N(C[C@@H]2CC[C@H]21)C[C@@]1(CCCc2cc(Cl)ccc21)CO3 (single isomer, unassigned) [27 (isomer 2)]	3.4 nM			5000 nM	3610 nM
C[C@@H]1[C@@H](C)S(=O)(=O)NC(=O)c2ccc3c(c2)N(C[C@@H]2CC[C@H]2[C@@H](OCCN2CCNCC2)C2=C[C@H]1C2)C[C@@]1(CCCc2c1ccc(Cl)c2F)CO3 [compound 65, (1S,11′R,12′S,13′R,16′R,16a′R,18a′R,E)-6-chloro-5-fluoro-11′,12′-dimethyl-16′-(2-(piperazin-1-yl)ethoxy)-3,4,12′,13′,16′,16a′,17′,18′,18a′,19′-decahydro-1′H,2H,3′H, 11′H-spiro[naphthalene-1,2′-[5,7]etheno[13,15]methanocyclobuta[i][1,4]oxazepino[3,4-f][1]thia[2,7]diazacyclohexadecin]-8′(9′H)-one 10′,10′-dioxide]	15 nM	210 nM	247 nM		
C[C@@H]1[C@@H](C)S(=O)(=O)NC(=O)c2ccc3c(c2)N(C[C@@H]2CC[C@H]2[C@@H](OCc2ncccn2)C2=C[C@H]1C2)C[C@@]1(CCCc2c1ccc(Cl)c2F)CO3 [compound 62, (1S,11′R,12′S,13′R,16′R,16a′R,18a′R,E)-6-chloro-5-fluoro-11′,12′-dimethyl-16′-(pyrimidin-2-ylmethoxy)-3,4,12′,13′,16′,16a′,17′,18′,18a′,19′-decahydro-1′H,2H,3′H,11′H-spiro[naphthalene-1,2′-[5,7]etheno[13,15]methanocyclobuta[i][1,4]oxazepino[3,4-f][1]thia[2,7]diazacyclohexadecin]-8′(9′H)-one 10′,10′-dioxide]	8.1 nM	9.3 nM	59 nM		
CO[C@H]1C2CC(C2)[C@H](C)CS(=O)(=O)NC(=O)c2ccc3c(c2)N(C[C@@H]2CC[C@H]21)C[C@@]1(CCCc2cc(Cl)ccc21)CO3 [compound 3]	8 nM	3000 nM	5450 nM		
C[C@@H]1[C@@H](C)S(=O)(=O)NC(=O)c2ccc3c(c2)N(C[C@@H]2CC[C@H]2[C@@H](OCCN2CC4(CN(C)C4)C2)C2=C[C@H]1C2)C[C@@]1(CCCc2c1ccc(Cl)c2F)CO3 [compound 81, (1S,11′R,12′S,13′R,16′R,16a′R,18a′R,E)-6-chloro-5-fluoro-11′,12′-dimethyl-16′-(2-(6-methyl-2,6-diazaspiro[3.3]heptan-2-yl)ethoxy)-3,4,12′,13′,16′,16a′,17′,18′,18a′,19′-decahydro-1′H,2H,3′H, 11′H-spiro[naphthalene-1,2′-[5,7]etheno[13,15]methanocyclobuta[i][1,4]oxazepino[3,4-f][1]thia[2,7]diazacyclohexadecin]-8′(9′H)-one 10′,10′-dioxide]	17 nM	360 nM	667 nM		
